Experiment: gradient 5% acetonitrile 3 min, to 50% in 2 min, to 85% in 15 min, held 3 min, 100 µL/min
Conditions: column: Zorbax Extend-C18 2.1 x 50 mm; eluents: water / acetonitrile, 0.1% formic acid
In short: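 In both positive and negative ionization mode, a quadrupole time-of-flight mass spectrometer coupled to HPLC analyzed pure standards run in mixtures of ~100 molecules. The Zorbax Extend-C18 column (2.1 × 50 mm, 1.8 μm) was operated at 100 μL/min with water and acetonitrile, each containing 0.1% formic acid. The dead volume was 40 μL and the dwell volume 900 μL. Retention time came from adduct peaks that were computationally picked and individually inspected by hand.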

SMILES | RP-LC retention time
Cc1cccc(-c2ncccc2CNS(=O)(=O)Cc2ccccc2F)c1 | 705 s
Cc1nnc(-c2cc(NC(=O)Cc3c[nH]c4ccccc34)c(C)s2)o1 | 794 s
NC(=O)COC1CCC12CCN(C(=O)C1CCCCCC1)CC2 (stereo unspecified) | 740 s
CN1C(=O)C(C)(C)c2cc(S(=O)(=O)N(C)CC(=O)N3CCN(c4ccccn4)CC3)ccc21 | 610 s
Cc1noc(-c2nn(C)c3c2CN(C(=O)NC(C)(C)C)CC3)n1 | 680 s
CC(C)C(=O)Nc1c(C(=O)N2CCN(c3ccccn3)CC2)oc2ccccc12 | 649 s
Cc1cc(C)c(S(=O)(=O)N2CC(c3nc(Cc4ccccc4)no3)C2)c(C)c1 | 1190 s
CN1CCN(c2ncncc2N2CCC(C(=O)N3CCN(c4ccccc4)CC3)CC2)CC1 | 570 s
CCCS(=O)(=O)c1nc2ccc(NS(=O)(=O)c3ccc4c(c3)CCC4)cc2s1 | 999 s
Cc1ccc(C)c(-c2cn3ccn(-c4ccc(F)cc4)c(=O)c3n2)c1 | 895 s
CCN(C(=O)Cn1c(C(C)C)nc2c(c1=O)CN(Cc1ccccc1)CC2)c1ccccc1 | 757 s
N#CCc1ccc(NC(=O)C2CCCN(S(=O)(=O)Cc3ccccc3Cl)C2)cc1 (stereo unspecified) | 905 s
Cn1nccc1C(=O)N1CCC(c2nc(-c3ccccc3)no2)C1 (stereo unspecified) | 779 s
O=C(O)c1cc(-c2ccccc2F)n[nH]1 | 630 s
CCS(=O)(=O)c1ccc(CC(=O)Nc2ccc(F)cc2F)cc1 | 711 s
OCCN1CCN(CCCN2c3ccccc3C=Cc3ccccc32)CC1 | 692 s
CCOc1ccccc1NC(=O)N1CCN(CCNC(=O)c2ccc3c(c2)OCO3)CC1 | 581 s
CC1=CC(=O)C2=C(C)C[C@H](O)[C@H]3[C@H](C)C(=O)O[C@@H]3C12 (stereo partly specified) | 725 s
CNC(=O)C1CCCN(c2nc3ncn(CC(=O)Nc4ccc(C(C)C)cc4)c(=O)c3s2)C1 (stereo unspecified) | 731 s
COc1ccccc1-c1noc(C2CCCN2C(=O)Cc2c[nH]c3ccccc23)n1 (stereo unspecified) | 838 s
COc1ccccc1-c1cc2nc(C)cc(NCC3CCCO3)n2n1 (stereo unspecified) | 592 s
CSc1ncccc1C(=O)Nc1ccc2c(c1)CCC(=O)N2C | 684 s
Cc1c2ccncc2cc2c1[nH]c1ccccc12 | 637 s
Cc1ccc(F)cc1S(=O)(=O)N1CCC2(C1)C(=O)Nc1ccccc12 (stereo unspecified) | 866 s
CC(C)OCCCNC(=O)CN1c2ccc(Br)cc2-c2ccccc2S1(=O)=O | 961 s
COc1cc(-c2nc3nc4ccccc4nc3n2CC2CCCO2)cc(OC)c1OC (stereo unspecified) | 795 s
COc1cccc(-c2ccc(=O)n(CCc3nc(-c4ccc(F)cc4)no3)n2)c1 | 981 s

Results, then the compound that gave them:

RP-LC retention time | SMILES
978 s | Fc1ccc(C(c2nnc(-c3ccccc3)o2)N2CCN(c3ccccn3)CC2)c(Cl)c1 (stereo unspecified)
764 s | CCn1nc(CNC(=O)Cc2cccc(F)c2)c2ccccc21
662 s | COc1ccc(-c2nc3cnccn3c2Nc2ccc(C(=O)O)cc2)cc1
652 s | CCCn1c(C)cnc1C1CN(S(=O)(=O)Cc2ccccc2)C1
1010 s | O=C(Cn1nc(N2CCCCCC2)c2ccccc2c1=O)Nc1ccc2c(c1)OCCO2
560 s | NC(=O)c1cc[nH]c1C1CCCN(C(=O)c2ccc(Cn3cncn3)o2)C1 (stereo unspecified)
816 s | CCn1c(=O)c(C(=O)NCc2ccc(F)cc2F)nc2cccnc21
929 s | Cc1ccc(-c2noc(CNC(=O)C3CCC(=O)N3S(=O)(=O)c3ccc(C)cc3)n2)cc1 (stereo unspecified)
800 s | Cn1nc(C(=O)N2CCCC(C(=O)Nc3ccccc3)C2)c2c1CCN(C(=O)CCc1ccccc1)C2 (stereo unspecified)
567 s | Cc1nnc2cc(N3CCN(C(=O)Nc4ccccc4Cl)CC3)cnn12
1080 s | CC(=O)Nc1ccc2c(c1)CN(C(=O)Cc1ccccc1F)C(C(=O)N(C)C)C2 (stereo unspecified)
654 s | COCc1nc2cccnc2n1C1CCN(C(=O)Nc2ccc3c(c2)OCCO3)CC1
1080 s | Cc1cc2nn(CC(=O)Nc3ccc(F)cc3F)c(=O)n2c(Nc2ccc(C)c(F)c2)n1
750 s | CC(C)N1C(=O)Cc2ccccc2C1C(=O)NCc1cccs1 (stereo unspecified)
560 s | Cc1ccc2nc(C(=O)NC3CCN(Cc4ccccc4)CC3)cn2c1
613 s | CN(C)c1ccc(C(CNC(=O)C(=O)Nc2ccc(F)c(Cl)c2)N2CCCC2)cc1 (stereo unspecified)
690 s | Cc1ccc(NC(=O)Cn2c(C)nc(C)c(C)c2=O)cc1C
638 s | O=C(Cn1c(C2CCCO2)nc2ccccc21)Nc1ccccc1 (stereo unspecified)
775 s | COc1ccc2nc(NC(=O)C3CCN(C(=O)C4Sc5ccccc5NC4=O)CC3)sc2c1 (stereo unspecified)
626 s | CCc1ccc(NC(=O)N2CCN(Cc3ccc4nccnc4c3)CC2)cc1

RP-LC retention time | SMILES
874 s | Cc1ccc(CC(=O)N2CCC3(CC2)N=C(c2ccc(C)cc2)NO3)cc1
855 s | O=C(NCCc1ccc(Cl)cc1)C1CCCN(c2ncnc3c2oc2ccccc23)C1 (stereo unspecified)
692 s | COC1CCC12CCN(C(=O)c1ocnc1C)CC2 (stereo unspecified)
704 s | CCNC(=O)c1sc2nc(-c3ccc(OC)cc3)c(NCCOC)n2c1C
894 s | O=c1c(=O)n(-c2ccccc2)ccn1Cc1nc(-c2ccc(F)c(Cl)c2)no1
824 s | CCN(CC)C(=O)N1CC(Oc2ccc(-c3nc(C)no3)cc2)C1
581 s | COCCC1(NC(=O)c2ccoc2)CCN(CC2CC2)CC1
778 s | CC(C)N1CCn2cc(S(=O)(=O)Nc3ccc(F)cc3Cl)cc2C1=O
829 s | CCOc1ccc2nc(NC(=O)C3CCN(S(=O)(=O)c4cn(C(C)C)cn4)CC3)sc2c1
826 s | CCOc1ccc(-c2ccc(=O)n(Cc3nc(-c4ccc(OC(C)C)cc4)no3)n2)cc1
807 s | CCn1nnc2ccc(-c3noc(-c4ccc(NC(C)=O)cc4)n3)cc21
706 s | O=C(NCC1CC1)c1ccc2c(c1)nc1n2CCN(C2CCCCC2)C1=O
675 s | CCNC(=O)C1CCN(c2nc3ncn(CC(=O)Nc4ccc(C)cc4C)c(=O)c3s2)CC1
904 s | CNC(=O)N1CCCC(c2cccc(C(=O)N3CCN(c4ccccc4Cl)CC3)c2)C1 (stereo unspecified)
746 s | Cc1ccccc1NC(=O)Cn1nc2cc(-c3ccccn3)nc(C)n2c1=O
573 s | COc1ccc(OCC(=O)N2CCN(c3nccn3-c3ccccc3F)CC2)cc1
1220 s | Cc1ccc(-c2coc(-c3ccc(NC(=O)C(C)(C)C)cc3)n2)cc1
633 s | Cc1cnc(-c2ccncc2)n1CCNS(=O)(=O)c1ccc2c(c1)CCC2
957 s | O=C(c1ccc(Cl)cc1)N1CCN(c2ccc([N+](=O)[O-])c3ncccc23)CC1
